Results on 23 compounds are retold here after ChEMBL document CHEMBL1126420, “Design and synthesis of novel ligands for the 5-HT3 and the 5-HT4 receptor” (Bioorg Med Chem Lett, 1992).

Data set [1] concerns the target 5-hydroxytryptamine receptor 4 (Cavia porcellus) (UniProt O70528). The data set is described as follows: Agonistic activity against Serotonin 5-hydroxytryptamine 4 receptor in low frequency field stimulation of guinea-pig ileum (FSGPI). It counts as functional, tissue-based.
For data set [2], the target named is Serotonin 3 (5-HT3) receptor. The data set is described as follows: Antagonistic activity against Serotonin 5-hydroxytryptamine 3 receptor of isolated guinea pig ileum (GPI). It counts as functional, tissue-based, Cavia porcellus.
For data set [3], the target named is 5-hydroxytryptamine receptor 4 (Cavia porcellus) (UniProt O70528). The data set is described as follows: Agonistic activity against Serotonin 5-hydroxytryptamine 4 receptor in non-electrically stimulated guinea-pig ileum. It counts as functional, tissue-based.
Sequence of 5-hydroxytryptamine receptor 4 (Cavia porcellus) (O70528 whole entry): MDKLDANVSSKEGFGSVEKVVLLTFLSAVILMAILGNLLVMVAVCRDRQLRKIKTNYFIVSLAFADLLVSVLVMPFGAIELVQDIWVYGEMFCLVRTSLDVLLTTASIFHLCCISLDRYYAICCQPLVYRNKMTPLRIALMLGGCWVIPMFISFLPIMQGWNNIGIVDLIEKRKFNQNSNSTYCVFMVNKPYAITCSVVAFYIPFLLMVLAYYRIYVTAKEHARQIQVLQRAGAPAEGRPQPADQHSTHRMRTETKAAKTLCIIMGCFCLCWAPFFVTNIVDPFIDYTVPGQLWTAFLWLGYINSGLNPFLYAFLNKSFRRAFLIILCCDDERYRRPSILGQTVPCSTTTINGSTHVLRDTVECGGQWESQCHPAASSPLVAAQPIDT
For data set [4], the target named is T1, Serotonin 3 (5-HT3) receptor (Homo sapiens) (UniProt P46098+A5X5Y0+O95264+Q70Z44+Q8WXA8). The data set is described as follows: Evaluated for the antagonistic activity against Serotonin 5-hydroxytryptamine 3 receptor in isolated rabbit vagus nerve (RVN). Format: functional, tissue-based. The settings on record: Oryctolagus cuniculus, target entry is the homologue from another species.

In data set [5] the target is T1, Serotonin 3 (5-HT3) receptor (Homo sapiens). The data set is described as follows: (§1) Evaluated for the antagonistic activity against Serotonin 5-hydroxytryptamine 3 receptor in isolated perfused rabbit heart (RH). It counts as functional. The following applies: Oryctolagus cuniculus; target entry is the homologue from another species.
Data set [6] concerns the target 5-hydroxytryptamine receptor 4 (Cavia porcellus) (UniProt O70528). The data set is described as follows: Agonistic activity against Serotonin 5-HT4 receptor in low frequency field stimulation of guinea-pig ileum (FSGPI). It counts as functional, tissue-based.
For data set [7], the target named is Serotonin 3 (5-HT3) receptor. The data set is described as §1. Format: functional, Oryctolagus cuniculus.
In data set [8] the target is Serotonin 3 (5-HT3) receptor. Nature of the data set: Antagonistic activity against Serotonin 5-hydroxytryptamine 3 receptor in isolated rabbit vagus nerve (RVN). It counts as functional, tissue-based, Oryctolagus cuniculus.
In data set [9] the target is T1, Serotonin 3 (5-HT3) receptor (Homo sapiens). The data set is described as follows: Evaluated for the antagonistic activity against Serotonin 5-hydroxytryptamine 3 receptor in isolated guinea pig ileum (GPI). It counts as functional, tissue-based. The following applies: Cavia porcellus, target entry is the homologue from another species.
The target of data set [10] is 5-hydroxytryptamine receptor 4 (Cavia porcellus) (UniProt O70528). Nature of the data set: Evaluated for the agonistic activity against Serotonin 5-HT4 receptor in non-electrically stimulated guinea-pig ileum. It counts as functional, tissue-based.
The nature of data set [11]: pKa value was determined. Format: physicochemical.
For the next data set, the species on record is Rattus norvegicus. Nature of the data set: Effective dose inhibited the Bezold-Jarisch reflex in rats was determined. Format: functional.
The target in data set [12] is 5-hydroxytryptamine receptor 4 (Cavia porcellus) (UniProt O70528). The following applies: Ileum.
Description: pD2 value in the non-electrically stimulated guinea pig ileum
Data set [13] addresses T2, Serotonin 3 receptor (5HT3) (Mus musculus) (UniProt Q9JHJ5+P23979). Nature of the data set: Compound was evaluated for binding to Serotonin 5-hydroxytryptamine 3 receptor in N1E cells using [3H]- -Tropisetron as radioligand. Format: cell-based.
Data set [14] has as its target 5-hydroxytryptamine receptor 4 (Cavia porcellus, UniProt O70528). Nature of the data set: Evaluated for the antagonistic activity against Serotonin 5-hydroxytryptamine 4 receptor in non-electrically stimulated guinea-pig ileum. Format: functional, tissue-based. The settings on record: read-out: pA2 (converted).
Data set [15] has as its target T2, Serotonin 3 receptor (5HT3) (Mus musculus). The data set is described as follows: Compound was evaluated for binding to 5-hydroxytryptamine 3 receptor in N1E cells using [3H]- -Tropisetron as radioligand. It counts as cell-based.
Data set [16] addresses Serotonin 3 (5-HT3) receptor. Nature of the data set: Evaluated for the antagonistic activity against 5-hydroxytryptamine 3 receptor in isolated rabbit vagus nerve (RVN). It counts as functional, tissue-based, Oryctolagus cuniculus.
Data set [17] addresses Serotonin 3 (5-HT3) receptor. The data set is described as follows: Evaluated for the antagonistic activity against 5-hydroxytryptamine 3 receptor in isolated perfused rabbit heart (RH). Format: functional, Oryctolagus cuniculus.
Data set [18] concerns the target 5-hydroxytryptamine receptor 4 (Cavia porcellus) (UniProt O70528). The following applies: Ileum. The source holds these as a separate data set.
Description: Evaluated for the agonistic activity against 5-HT4 receptor in non-electrically stimulated guinea-pig ileum.

Usually pA2 stands for a measure of antagonist potency on a negative log scale. As a reminder, the pKa is the pH at which an ionisable group is half protonated. Read a low pKa as a stronger acid or weaker base. As usually defined, the ED50 is the dose at which the effect has come halfway, by size or by number of responders. High values mean weaker potency, low ones greater potency. A word on the pKD: it is the KD on a negative log10 scale, so that one unit is a factor of ten. A higher pKD goes with a low KD.

T2 sequence (P23979 whole entry, looked up): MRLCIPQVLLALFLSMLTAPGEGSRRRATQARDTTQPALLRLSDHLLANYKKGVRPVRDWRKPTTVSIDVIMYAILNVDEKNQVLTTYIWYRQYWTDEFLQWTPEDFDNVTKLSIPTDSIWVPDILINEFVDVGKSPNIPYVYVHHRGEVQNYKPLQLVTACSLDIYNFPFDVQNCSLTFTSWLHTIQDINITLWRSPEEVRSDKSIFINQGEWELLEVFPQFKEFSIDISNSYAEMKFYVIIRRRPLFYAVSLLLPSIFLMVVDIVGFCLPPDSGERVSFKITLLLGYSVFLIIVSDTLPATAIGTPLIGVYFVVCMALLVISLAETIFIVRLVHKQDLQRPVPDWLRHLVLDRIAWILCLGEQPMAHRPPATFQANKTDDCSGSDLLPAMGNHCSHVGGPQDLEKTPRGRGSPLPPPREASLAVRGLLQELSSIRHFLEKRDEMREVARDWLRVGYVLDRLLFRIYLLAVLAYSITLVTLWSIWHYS
T2 sequence (Q9JHJ5 whole entry, looked up): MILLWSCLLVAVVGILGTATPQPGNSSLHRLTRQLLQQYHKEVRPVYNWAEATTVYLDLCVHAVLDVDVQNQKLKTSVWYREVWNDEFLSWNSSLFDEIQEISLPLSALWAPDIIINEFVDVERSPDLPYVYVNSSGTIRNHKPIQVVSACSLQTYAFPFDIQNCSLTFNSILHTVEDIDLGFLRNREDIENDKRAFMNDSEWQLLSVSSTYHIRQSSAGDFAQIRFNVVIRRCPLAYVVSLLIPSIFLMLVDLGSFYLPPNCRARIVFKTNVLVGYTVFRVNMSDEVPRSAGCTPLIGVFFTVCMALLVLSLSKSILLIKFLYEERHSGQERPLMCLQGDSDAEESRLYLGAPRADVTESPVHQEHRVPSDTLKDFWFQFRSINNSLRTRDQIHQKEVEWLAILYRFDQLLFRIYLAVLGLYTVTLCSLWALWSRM
Sequence of 5-hydroxytryptamine receptor 4 (O70528 whole entry): as the sequence (O70528 whole entry) above

`COc1ccc2[nH]ccc2c1C(=O)NC1CN2CCC1CC2` (configuration not stated): the pD2 in data set [1] was found to be 6.6; in [3], 7.1. This compound also returned a pA2 in [2] of 7.2.

For `O=C(CC1CC2CCC(C1)N2)c1c[nH]c2cc(O)ccc12` (configuration not stated), the figures for the pD2 in data set [4] and in [5] were 7 and 6, respectively. The pA2 in data set [2] is reported as 6.

`Cc1[nH]c2ccc(O)cc2c1CC(=N)NCCCN1CCCC1=O` returned a pD2 in data set [6] of 5.8.

`COc1cc(N)c(Cl)cc1C(=O)N[C@H]1CCN(CCCOc2ccc(F)cc2)C[C@H]1OC` [CISAPRIDE] yielded a pD2 in data set [1] of 6. Besides, the pA2 in data set [7] stood at 7.1; in data set [2] it was 7.2; in [8] it was 6.5.

As to `NCCC1CCCc2ccc(O)cc21` (configuration not stated), the pD2 was determined as 6 in data set [4], 5.7 in data set [5] and 5.2 in data set [9].

For `CCN(CC)CCN1CCc2cc(N)c(Cl)cc2C1=O`, the pD2 was 5.1 in data set [10] and 5.2 in data set [6].

Regarding `CN1[C@@H]2CC[C@H]1C[C@@H](OC(=O)c1c[nH]c3ccccc13)C2` [TROPISETRON], in [11], the pKa came out at 8.4. This compound returned an ED50 in the data set filed under Rattus norvegicus of 0.72 µg/kg. This compound showed a pD2 in data set [12] of 5.7. In [13], this compound returned a pKD of 9.1. In addition, the Kb in data set [14] was 2000 nM.

With `Nc1c(Cl)cc(C(=O)NC2CCN3CCCC2C3)c2ncccc12` (configuration not stated), the pD2 in data set [1] stood at 7.5; in [3] it was 7.1. The compound also came in with a pA2 in data set [2] of 6.7.

`Cc1nccn1CC1CCc2c(c3ccccc3n2C)C1=O` (configuration not stated) registered a pD2 in data set [1] of 5.1. This compound also gave a negative logarithm of the KD (pKD) in [15] of 7.7.

Regarding `CN1C2CC(OC(=O)c3c[nH]c4ccccc34)CC1C1OC12` (configuration not stated), in data set [1], the pD2 was found to be 0. Moreover, the pKa in data set [11] amounted to 6.64. Further, the pA2 in data set [16] amounted to 10.6; in data set [2], 8.8; in data set [17] it was 11. Moreover, the pKD in [13] is 9.2. Further, the Kb in data set [14] was 501 nM.

On to `NCCc1ccnc2ccc(O)cc12`, for which the pD2 in [4] came to 5.8; in data set [9] it was 4.5.

As for `NCCc1c[nH]c2ccc(O)cc12`, the results for the pD2 in [18] and in data set [6] were 7.9 and 7, respectively.

Turning to `Cc1[nH]c2ccc(O)cc2c1CCN`, the pD2 in data set [4] was 5.6; in data set [5], 5.5; in data set [9] it was 5.1.

Regarding `COc1cc(N)c(Cl)cc1C(=O)NC1CN2CCC1CC2` (configuration not stated), the pD2 in [1] is 6.2; in data set [3], 5.9.

For `Nc1c(Cl)cc(C(=O)NC2CN3CCC2CC3)c2ncccc12` (configuration not stated), the pD2 in [1] worked out at 7.2; in data set [3] it was 6. The pA2 in [2] turned out to be 7.9; in data set [8] it was 9.

Regarding `Nc1c(Cl)cc(C(=O)NC2CN3CCC2CC3)c2nsnc12` (configuration not stated), the pD2 in data set [1] was 5.8; in [3] it was 5.5. Further, the figures for the pA2 in data set [2] and in data set [8] were 7.7 and 8.9, respectively.

For the compound `CCN(CC)Cc1coc(-c2cc(Cl)c(N)cc2OC)n1`, the pD2 stood at 6 in data set [10] and 6.1 in data set [6].

As to `CCN(CC)CCOC(=O)c1cc(Cl)c(N)cc1OC`, the pD2 in [10] was found to be 7.

Take `N/C(Cc1c[nH]c2ccc(O)cc12)=N\CCc1c[nH]c2ccc(O)cc12`: the pD2 in [6] came to 6.3.

As to `COc1cc(N)c(Cl)cc1C(=O)N[C@H]1CCN2CCC[C@@H]1C2`, the pD2 stood at 7.1 in [1] and 5.7 in data set [3]. The same compound had a pA2 in data set [7] of 8.6.

`CCN(CC)CCNC(=O)c1cc(Cl)c(N)cc1OC` [METOCLOPRAMIDE] returned a pD2 in data set [1] of 5.5. For the same compound, the pA2 in data set [7] was 7.1; in data set [2], 5.2.

`Nc1c(Cl)cc(C(=O)NC2CCN3CCCC2C3)c2nsnc12` (configuration not stated): the pD2 in [1] came out at 7.2; in [3] it was 6. For the same compound, the pA2 in [2] was 6.8; in data set [8] it was 7.7.

`N#Cc1[nH]c2ccc(O)cc2c1CCN`: the pD2 was 7.2 in [4], 4 in data set [5] and 5.4 in data set [9].
